Results on four compounds are retold here after patent publication US12391737B2, “Soluble NPY2 receptor agonists” (Boehringer Ingelheim International GmbH, priority 2020, dated 2025).

The structures appear in SMILES notation.

Data set [1] deals with T1, human NPY1 receptor (hY1R) (Homo sapiens, UniProt P25929).
T1 construct: expressed in transfected cells; host or cells: CHO-K1
T1 sequence (P25929 1-384): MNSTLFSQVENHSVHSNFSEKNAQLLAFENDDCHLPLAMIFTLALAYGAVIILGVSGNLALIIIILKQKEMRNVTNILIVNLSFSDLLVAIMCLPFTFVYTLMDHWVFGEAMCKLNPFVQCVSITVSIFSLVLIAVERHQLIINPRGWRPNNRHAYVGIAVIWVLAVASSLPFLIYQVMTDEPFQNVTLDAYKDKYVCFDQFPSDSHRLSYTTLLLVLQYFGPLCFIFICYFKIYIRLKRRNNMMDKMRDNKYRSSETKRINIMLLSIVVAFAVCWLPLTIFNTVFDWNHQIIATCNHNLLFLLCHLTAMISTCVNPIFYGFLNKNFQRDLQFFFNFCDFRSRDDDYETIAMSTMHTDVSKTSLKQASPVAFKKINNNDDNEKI
The experiment in a line: HTRF cAMP Gi assay, hY1R. The data set is classed as cell-based. The conditions noted are these: CHO-K1 cells.
Experimental: Briefly, the production of intracellular cAMP will generate a competition between unlabeled cAMP and exogenously added d2-cAMP for anti-cAMP antibodies conjugated to cryptate. CHO-K1 cells stably expressing the human NPY1, NPY2, NPY4 and NPY5 receptors were used with the cells brought to life from a frozen stock immediately before assay performance. 2000 cells per well were applied for all four NPY receptor subtype assays. A 384-well format was used applying a total volume of 20 μl using 5 μl cells, 2.5 μl peptide agonist, 2.5 μl forskolin and 5 μl of each of the fluorophores. […] Concentration-response evaluation of compounds was performed with 11 concentrations of agonist peptides (covering 3 decades). EC50 values were calculated by nonlinear regression using sigmoid concentration-response with variable slope.

A short description of a further data set: Solubility determination. The following applies: for Sol6: pH 6; for Sol7: pH 7. The gist of the method:
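Solubility is derived from the ratio of reversed-phase peak areas, filtered sample over a control dissolved at 1 mg/ml in 50% acetonitrile. Peptides are agitated for 2 hours at room temperature in 0.1 M sodium diphosphate at pH 6.4 or 7.0, aiming at 10 mg/ml.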

Data set [2] deals with T2, Human Neuropeptide Y2 Receptor (Homo sapiens, UniProt P49146).
T2 construct: purchased CHEMICON HTS066M
T2 sequence (P49146 1-381): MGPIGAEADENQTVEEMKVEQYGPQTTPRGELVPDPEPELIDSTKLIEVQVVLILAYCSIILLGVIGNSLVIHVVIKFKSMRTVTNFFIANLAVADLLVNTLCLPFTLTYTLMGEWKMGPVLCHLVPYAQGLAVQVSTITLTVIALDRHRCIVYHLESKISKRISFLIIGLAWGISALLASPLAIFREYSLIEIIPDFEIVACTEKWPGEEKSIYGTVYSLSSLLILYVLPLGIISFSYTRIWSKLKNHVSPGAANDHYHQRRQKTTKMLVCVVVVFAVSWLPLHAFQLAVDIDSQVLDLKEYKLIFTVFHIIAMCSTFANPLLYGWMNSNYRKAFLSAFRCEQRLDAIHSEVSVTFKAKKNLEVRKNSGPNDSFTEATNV
The experiment in a line: Radioligand binding competition assay (RLB). The conditions noted are these: Table 3, 125I-PYY(1-36) competition; read-out: Ki. The gist of the method:
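Peptides were serially diluted from 1 mM DMSO stocks and competed for radioligand binding to receptor membranes (0.5 μg/well) over 2 h at room temperature, pH 7.4 HEPES buffer. Bound radioactivity on filters was counted by scintillation, and IC50 was derived by nonlinear regression.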

In data set [3] the target is T3, human NPY4 receptor (hY4R) (Homo sapiens, UniProt P50391).
T3 construct: expressed in transfected cells; host or cells: CHO-K1
T3 sequence (P50391 whole entry): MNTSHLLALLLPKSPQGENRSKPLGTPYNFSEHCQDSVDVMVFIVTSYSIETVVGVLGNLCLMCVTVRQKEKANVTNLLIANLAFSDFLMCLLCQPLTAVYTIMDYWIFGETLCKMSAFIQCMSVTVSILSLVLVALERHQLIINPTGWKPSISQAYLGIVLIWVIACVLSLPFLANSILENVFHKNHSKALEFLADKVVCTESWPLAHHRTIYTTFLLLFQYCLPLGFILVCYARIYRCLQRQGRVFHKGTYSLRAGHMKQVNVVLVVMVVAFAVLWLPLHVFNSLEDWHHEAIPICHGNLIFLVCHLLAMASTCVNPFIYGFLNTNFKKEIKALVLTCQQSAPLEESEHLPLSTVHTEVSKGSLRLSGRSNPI
The experiment in a line: HTRF cAMP Gi assay, hY4R. It counts as cell-based. The following applies: CHO-K1 cells.

The target of data set [4] is T4, human NPY5 receptor (hY5R) (Homo sapiens, UniProt Q15761).
T4 sequence (Q15761 1-445): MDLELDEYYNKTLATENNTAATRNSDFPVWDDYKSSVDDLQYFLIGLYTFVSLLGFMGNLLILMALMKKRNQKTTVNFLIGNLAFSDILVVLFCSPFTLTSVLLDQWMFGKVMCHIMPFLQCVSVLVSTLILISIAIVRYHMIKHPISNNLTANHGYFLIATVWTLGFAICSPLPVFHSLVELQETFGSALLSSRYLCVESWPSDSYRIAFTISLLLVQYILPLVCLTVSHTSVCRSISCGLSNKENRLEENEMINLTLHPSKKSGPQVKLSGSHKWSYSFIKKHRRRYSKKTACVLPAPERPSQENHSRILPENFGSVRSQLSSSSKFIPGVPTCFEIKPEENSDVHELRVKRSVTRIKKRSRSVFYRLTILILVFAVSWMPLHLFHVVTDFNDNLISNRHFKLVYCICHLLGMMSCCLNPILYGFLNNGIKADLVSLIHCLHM
The experiment in a line: HTRF cAMP Gi assay, hY5R. (In general: In TR-FRET formats the signal depends on donor and acceptor labels being close together.)

By EC50 is commonly meant the midpoint of the concentration-response curve. Low readings indicate greater potency, high ones weaker potency. The term Ki denotes a measure of affinity in units of concentration, obtained from inhibition or displacement. Consider `CC[C@H](C)[C@H](NC(=O)[C@H](CCC(=O)O)NC(=O)[C@H](CCC(=O)O)NC(=O)[C@@H]1CCCN1C(=O)[C@H](CCC(=O)O)NC(=O)[C@H](C)NC(=O)[C@H](CC(=O)O)NC(=O)[C@H](CCC(=O)O)NC(=O)[C@@H]1CCCN1C(=O)[C@@H]1CCCN1C(=O)[C@H](CCCCNC(=O)CCCCCNC(=O)CC[C@H](NC(=O)CCCCCCCCCCCCCCCCC(=O)O)C(=O)O)NC(=O)[C@H](CCC(=O)O)NC(=O)[C@@H]1CCCN1C(=O)[C@H](C)NC(=O)CC(C)C)C(=O)N[C@@H](CCC(N)=O)C(=O)N[C@@H](CCCNC(=N)N)C(=O)N[C@@H](Cc1ccc(O)cc1)C(=O)N[C@@H](Cc1ccc(O)cc1)C(=O)N[C@H](C(=O)N[C@@H](CO)C(=O)N[C@@H](CC(C)C)C(=O)N[C@@H](CCCNC(=N)N)C(=O)N[C@@H](Cc1c[nH]cn1)C(=O)N[C@@H](Cc1ccc(O)cc1)C(=O)N[C@@H](Cc1ccc(O)cc1)C(=O)N[C@@H](CC(N)=O)C(=O)N[C@@H](Cc1c[nH]c2ccccc12)C(=O)N[C@@H](CC(C)C)C(=O)N[C@H](C(=O)N[C@@H](CCCNC(=N)N)C(=O)N[C@@H](CCC(N)=O)C(=O)N[C@@H](CCCNC(=N)N)C(=O)N[C@@H](Cc1ccc(O)cc1)C(N)=O)[C@@H](C)O)C(C)C` [Compound 118, N{alpha-4}-(3-methylbutanoyl)-N{epsilon-7}-(6-[(4S)-4-carboxy-4-(17-carboxyheptadecanamido)butanamido]hexanoyl)-[4A,7K,9P,13E,17I,18Q,22V,28Y,30W,31L]-hPYY(4-36)], for which the EC50 in data set [1], in data set [3] and in data set [4] was over 5 µM throughout. In addition, the “Sol6” value in “Solubility determination” was found to be 10.0 mg/mL. Also, the “Sol7” value in “Solubility determination” is 9.5 mg/mL. For the same compound, in data set [2], the inhibition constant (Ki) came out at 0.001 µM.

As to `CC[C@H](C)[C@H](NC(=O)[C@H](CCC(=O)O)NC(=O)[C@H](CCC(=O)O)NC(=O)[C@@H]1CCCN1C(=O)[C@H](CO)NC(=O)[C@H](C)NC(=O)[C@H](CCC(=O)O)NC(=O)[C@H](CCC(=O)O)NC(=O)[C@H](CCC(=O)O)NC(=O)[C@@H]1CCCN1C(=O)[C@H](CCCCNC(=O)CCCCCNC(=O)CC[C@H](NC(=O)CCCCCCCCCCCCCCCCC(=O)O)C(=O)O)NC(=O)[C@H](CCC(=O)O)NC(=O)[C@@H]1CCCN1C(=O)[C@H](C)NC(=O)CC(C)C)C(=O)N[C@@H](CCC(N)=O)C(=O)N[C@@H](CCCNC(=N)N)C(=O)N[C@@H](Cc1ccc(O)cc1)C(=O)N[C@@H](Cc1ccc(O)cc1)C(=O)N[C@H](C(=O)N[C@@H](CO)C(=O)N[C@@H](CC(C)C)C(=O)N[C@@H](CCCNC(=N)N)C(=O)N[C@@H](Cc1c[nH]cn1)C(=O)N[C@@H](Cc1ccc(O)cc1)C(=O)N[C@@H](Cc1ccc(O)cc1)C(=O)N[C@@H](CC(N)=O)C(=O)N[C@@H](Cc1c[nH]c2ccccc12)C(=O)N[C@@H](CC(C)C)C(=O)N[C@H](C(=O)N[C@@H](CCCNC(=N)N)C(=O)N[C@@H](CCC(N)=O)C(=O)N[C@@H](CCCNC(=N)N)C(=O)N[C@@H](Cc1ccc(O)cc1)C(N)=O)[C@@H](C)O)C(C)C` [Compound 193, N{alpha-4}-(3-methylbutanoyl)-N{epsilon-7}-(6-[(4S)-4-carboxy-4-(17-carboxyheptadecanamido)butanamido]hexanoyl)-[4A,7K,9E,11E,17I,18Q,22V,28Y,30W,31L]-hPYY(4-36)], the EC50 in data set [1], in data set [3] and in data set [4] was over 5 µM in each case. For the same compound, the “Sol6” value in “Solubility determination” was 8.9 mg/mL. Moreover, in “Solubility determination”, the “Sol7” value came out at 9.1 mg/mL. The Ki in data set [2] amounted to 0.00342 µM.

Regarding `CC(C)CC(=O)N[C@@H](C)C(=O)N1CCC[C@H]1C(=O)N[C@@H](CCC(=O)O)C(=O)N[C@@H](CCCCNC(=O)CCCCCNC(=O)CC[C@H](NC(=O)CCCCCCCCCCCCCCCCC(=O)O)C(=O)O)C(=O)N1CCC[C@H]1C(=O)N[C@@H](CCC(=O)O)C(=O)N[C@@H](C)C(=O)N[C@@H](CC(=O)O)C(=O)N[C@@H](C)C(=O)N[C@H](C(=O)N1CCC[C@H]1C(=O)N[C@@H](CCC(=O)O)C(=O)N[C@@H](CCC(=O)O)C(=O)N[C@@H](CC(C)C)C(=O)N[C@@H](CCC(N)=O)C(=O)N[C@@H](CCCNC(=N)N)C(=O)N[C@@H](Cc1ccc(O)cc1)C(=O)N[C@@H](Cc1ccc(O)cc1)C(=O)N[C@H](C(=O)N[C@@H](C)C(=O)N[C@@H](CC(C)C)C(=O)N[C@@H](CCCNC(=N)N)C(=O)N[C@@H](Cc1c[nH]cn1)C(=O)N[C@@H](Cc1ccc(O)cc1)C(=O)N[C@@H](Cc1ccc(O)cc1)C(=O)N[C@@H](CC(N)=O)C(=O)N[C@@H](Cc1c[nH]c2ccccc12)C(=O)N[C@@H](CC(C)C)C(=O)N[C@H](C(=O)N[C@@H](CCCNC(=N)N)C(=O)N[C@@H](CCC(N)=O)C(=O)N[C@@H](CCCNC(=N)N)C(=O)N[C@@H](Cc1ccc(O)cc1)C(N)=O)[C@@H](C)O)C(C)C)[C@@H](C)O` [Compound 136, N{alpha-4}-(3-methylbutanoyl)-N{epsilon-7}-(6-[(4S)-4-carboxy-4-(17-carboxyheptadecanamido)butanamido]hexanoyl)-[4A,7K,9E,10A,13T,18Q,22V,23A,28Y,30W,31L]-hPYY(4-36)], the EC50 in data set [1], in data set [3] and in data set [4] was over 5 µM each time. Besides, in “Solubility determination”, the “Sol6” value turned out to be 9.6 mg/mL. Moreover, in the data set “Solubility determination”, the “Sol7” value was determined as 10.0 mg/mL. In data set [2], the inhibition constant (Ki) came to 0.00107 µM.

Consider `CC(C)CC(=O)N[C@@H](C)C(=O)N1CCC[C@H]1C(=O)N[C@@H](CCC(=O)O)C(=O)N[C@@H](CCCCNC(=O)CCCCCNC(=O)CC[C@H](NC(=O)CCCCCCCCCCCCCCCCC(=O)O)C(=O)O)C(=O)N1CCC[C@H]1C(=O)N[C@@H](CCC(=O)O)C(=O)N[C@@H](C)C(=O)N[C@@H](CCC(=O)O)C(=O)N[C@@H](C)C(=O)N[C@@H](CO)C(=O)N1CCC[C@H]1C(=O)N[C@@H](CCC(=O)O)C(=O)N[C@@H](CCC(=O)O)C(=O)N[C@@H](CC(C)C)C(=O)N[C@@H](CCC(N)=O)C(=O)N[C@@H](CCCNC(=N)N)C(=O)N[C@@H](Cc1ccc(O)cc1)C(=O)N[C@@H](Cc1ccc(O)cc1)C(=O)N[C@H](C(=O)N[C@@H](CO)C(=O)N[C@@H](CC(C)C)C(=O)N[C@@H](CCCNC(=N)N)C(=O)N[C@@H](Cc1c[nH]cn1)C(=O)N[C@@H](Cc1ccc(O)cc1)C(=O)N[C@@H](Cc1ccc(O)cc1)C(=O)N[C@@H](CC(N)=O)C(=O)N[C@@H](Cc1c[nH]c2ccccc12)C(=O)N[C@@H](CC(C)C)C(=O)N[C@H](C(=O)N[C@@H](CCCNC(=N)N)C(=O)N[C@@H](CCC(N)=O)C(=O)N[C@@H](CCCNC(=N)N)C(=O)N[C@@H](Cc1ccc(O)cc1)C(N)=O)[C@@H](C)O)C(C)C` [Compound 122, N{alpha-4}-(3-methylbutanoyl)-N{epsilon-7}-(6-[(4S)-4-carboxy-4-(17-carboxyheptadecanamido)butanamido]hexanoyl)-[4A,7K,9E,10A,11E,18Q,22V,28Y,30W,31L]-hPYY(4-36)], for which the EC50 in data set [1], in data set [3] and in data set [4] was over 5 µM throughout. In addition, the “Sol6” value in “Solubility determination” was determined as 9.8 mg/mL. Moreover, the “Sol7” value in the data set “Solubility determination” turned out to be 9.9 mg/mL.
